Measured values published in patent US20090325959A1 (priority 2008, published 2009).
Read-outs that look alike come from different tables or passages of the source.

Assays:
ROCK1 = target: T1, ROCK1 (Homo sapiens, UniProt Q13464); experiment: Rho kinase inhibition assay (IMAP fluorescence polarization), ROCK1; assay type: biochemical;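 note: kinase reaction run 60 min at room temperature, then phosphorylated substrate captured on IMAP beads for 30 min, with fluorescence polarization read in mP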
T1 construct: purchased Upstate/Chemicon 14-601
Method: (§1) Following the pre-incubation, 10 μM ATP was added to initiate the reaction. After 60 minutes at room temperature, Molecular Devices IMAP™ binding solution was added to bind phosphorylated substrate. After 30 minutes of incubation in the presence of the IMAP™ beads, the fluorescence polarization was read and the ratio was reported as mP. IC50 values for compounds and EC50 values for ATP were calculated using the Prism software from Graphpad.

p70S6K human enzyme = target: T2, p70S6K human enzyme (Homo sapiens, UniProt P23443, T412E); experiment: p70S6K inhibition assay (IMAP FP); assay type: biochemical;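 note: kinase reaction run at room temperature, phosphorylated substrate captured on IMAP beads and read as fluorescence polarization in mP, IC50 then converted to Ki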
T2 construct: purchased Upstate Chemicon 14-486

Akt3 human enzyme = target: T3, Akt3 human enzyme (Homo sapiens, UniProt Q9Y243); experiment: Akt3 inhibition assay (IMAP FP); assay type: biochemical;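 note: kinase reaction run 60 min at room temperature after 30 µM ATP start, phosphorylated substrate captured on IMAP beads and read as fluorescence polarization (mP)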
T3 construct: purchased Upstate Chemicon 14-502
Method: Inhibition of Akt3 and p70S6K activity was determined using the IMAP™ FP Progressive Binding Kit (Molecular Devices product number R8127). […] Following the pre-incubation, 30 μM ATP was added to initiate the reaction. After 60 minutes at RT, Molecular Devices IMAP™ binding solution was added to bind phosphorylated substrate. After 30 minutes of incubation in the presence of the IMAP™ beads the fluorescence polarization was read and the ratio was reported as mP. IC50 results were calculated using the Prism software from Graphpad. The Ki values were determined according to the following formula: Ki=IC50/(1+([ATP Challenge]/EC50 ATP)).

[1] = test system: ova-sensitized, ova-challenged mice; experiment: Prevention of airway hyperreactivity (Penh, methacholine) in mouse ovalbumin sensitization model; assay type: in vivo; conditions: for log10AUC (Penh): 15 μmol/kg/oral, days 27 to 31; for airway hyperreactivity to methacholine dosed on Day 32: oral 15 μMol/kg once a day during days 27 to 31
Method: The anti-inflammatory dosing paradigm consists of dosing the animals once a day starting on day 27 and finishing on either day 30 or 31 (1 hr prior to the aerosolized ovalbumin challenges on days 28 to 30) but not on day 32 when hyperreactivity evaluation occurs. […] Exposure to the methacholine doses consisted of a 3 minute period during which a nebulizer was aerosolizing the methacholine and an additional 3 minute period following the cessation of nebulization. […] Enhanced pause (Penh), a unitless index of airway hyperreactivity, is derived from the expiratory side of the respiratory waveform measured via the plethysmograph and is used as an indirect measure of airway resistance and hyperreactivity. […] Following the methacholine dose response, BALF was collected and all animals were anesthetized, bled and euthanized. […] The Penh value at each of the dose levels of methacholine represents the 6-minute average response. Change from baseline (CFB) in Penh was calculated at each methacholine dose and the area under the curve (AUC) for these CFB values was calculated using the trapezoidal rule. This same approach was applied for each mouse across multiple experiments. […] Data from equal experimental conditions across experiments performed on different days were pooled for statistical analysis and data reporting. […] A random intercept for each experiment was assumed to account for possible similarities of the results obtained from a given experiment (i.e., as a “blocking effect”). […] For FIG. 9, linear AUC values from compound treated mice were reported as a percent of linear AUC values from vehicle-treated ovalbumin-sensitized/ovalbumin-challenged (asthmatic) mice.

[2] = Rat oral pharmacokinetics (plasma); assay type: in vivo; conditions: 20-30 μmol/kg; for half-life: mean n = 3, read-out: t½ (converted)
human neutrophils = experiment: Human neutrophil chemotaxis induced by fMLP (modified Boyden chamber); assay type: cell-based
Procedure, shortened: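 Neutrophils from healthy volunteers' blood, isolated by Ficoll-paque centrifugation, dextran sedimentation and hypotonic red-cell lysis. Migration measured in a modified Boyden chamber (3 μm polycarbonate membrane) toward 1 μM fMLP for 1 h at 37° C., 5% CO2. Compounds tested in dose response.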

[3] = Compound concentrations in lungs of ova-sensitized, ova-challenged mice post IP, PO and IT administration; assay type: in vivo; conditions: male, Balb/c, mouse, lung, n = 9 or 10, read-out: Lung concentration (plasma corrected); for concentration at 3 h: BD model, time point 3 h; for concentration at 24 h: AI model, time point 24 h
Method: Additionally, compound concentrations were determined in the plasma and lungs of male, ovalbumin-sensitized, Balb/c mice from a murine model of asthma. Test compounds were formulated in water or 1% polysorbate 80 and dosed at 15 μmol/kg for intraperitoneal (IP) or oral (PO) administration or formulated for intratracheal (IT) administration and dosed at 5 μmol/kg, which directly targets the lungs. Following completion of the in vivo study, mice were euthanized and blood and plasma collected approximately 2.5-3 hours post administration of test compound for bronchodialator (BD) studies and 24 hours post administration for anti-inflamatory (AI) studies. Lungs were homogenized in Matrix A lysing tubes using a FastPrep 24 tissue and cell homogenizer (MP Biomedicals, Solon, Ohio). Both plasma samples and lung extracts were assayed for compound concentrations using an on-line, solid phase extraction LC/MS/MS system. The actual lung tissue concentrations of each compound in mouse were extrapolated from the lung and plasma concentrations, data are shown in Table 11. The results of a set of experiments using unsensitized mice and collecting only plasma 15 minutes post administration of test compounds are shown in Table 12.

[4] = test system: A-10 rat thoracic aorta cells; experiment: PDGF-stimulated smooth muscle cell proliferation assay (BrdU incorporation); assay type: cell-based; conditions: for Percent of PDGF Induced Proliferation at 1 μM Avg / Percent of PDGF Induced Proliferation at 10 μM Avg: A-10 cells, 10 ng/mL PDGF, BrdU incorporation, percent of total challenge-stimulated proliferation; for Percent of PDGF Induced Proliferation at 1 μM Avg: 1 μM test compound; for Percent of PDGF Induced Proliferation at 10 μM Avg: 10 μM test compound;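 for all read-outs here: cells kept in serum-free medium, BrdU allowed to incorporate for 24 h, then incorporated label detected fluorometrically with an anti-BrdU antibody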
Method: Effects on cell proliferation were measured using a bromodeoxyuridine (BrdU) incorporation assay. […] Serum free media containing 01% BSA was added to the cells. 24 hours later the media was removed and replaced with warmed serum free media. […] Proliferation was then monitored using the BrdU Cell Proliferation Assay, HTS (Calbiochem cat. #t HTS01). BrdU was allowed to incorporate into cells for 24 hours prior to the addition of fixative/denaturing solution and the fluorometric detection of incorporated BrdU using a BrdU antibody as per manufacturer's directions. Data are reported as a percent of the PDGF-stimulated BrdU incorporation.

LPS-challenged mice = experiment: LPS-induced neutrophilia and cytokine production assay; assay type: in vivo, mouse; conditions: intratracheal administration; FIG. 11B
Method: Male BALB/c mice, approximately 19 to 21 grams, were ordered from Charles River Laboratories (Raleigh, N.C.). All animals were challenged with aerosolized LPS (10 μg/ml) for 25 minutes on study day 0. LPS aerosol was generated using an Aerogen Aeroneb nebulizer and controller providing a flow of 400 μl/min and a particle size of 2-4 μm MMAD. Rolipram was administered i.p at 20 mg/kg. […] Four hours following LPS challenge, BALF was collected using a total of 3 ml of 0.9% sodium chloride containing 10% fetal calf serum. Total cell counts were determined using the Coulter Counter. For differential evaluations, BALF was centrifuged and cytospin slides prepared and stained with Hema3 stain. Manual leukocyte counts were then completed on 200 cells. The final concentration of individual leukocyte cell types per ml of BALF was determined by multiplication of the relative percentage of individual leukocytes with the total amount of cells/ml of BALF fluid. The concentration of IL-1β in the BALF samples was determined using commercially available Bio-plex kits (Bio-Rad). The analysis of cytokine levels was measured using the Bio-Plex 200 (Bio-Rad) system according to the manufacturer's instructions.

[5] = Compound plasma concentrations in unsensitized mice at 15 min post administration; assay type: in vivo; conditions: mouse
[6] = test system: ova-sensitized, ova-challenged mice; experiment: Mouse ovalbumin sensitization model, in vivo anti-inflammatory activity (BALF eosinophils and cytokines); conditions: for Airway eosinophil infiltration (eosinophils per ml of BALF): dosed orally to day 31, anti-inflammatory dosing paradigm, FIG. 4
Method: Male BALB/c mice were ordered from Charles River Laboratories (Raleigh, N.C.). The animals were approximately 19 to 21 grams at time of receipt. Upon arrival, the animals were randomized into groups of five males per cage and assigned to a dosing group. Animals were quarantined for 7 days under test conditions. They were observed daily for general health status and ability to adapt to the water bottles. Animals were sensitized on day 0 and 14 of study by an intraperitoneal injection with 20 μg of ovalbumin (ova) and 2.0 mg aluminum hydroxide (alum) which initiates the development of a specific T-helper (Th) cells type 2 resulting in asthmatic animals (denoted as Ova in the figures). One group of animals received an injection of saline to use as control animals (denoted as normal in the figures). […] Aerosol challenge consists of using an Aerogen Aeroneb nebulizer and controller with a particle size of 4-6 μm mass median aerodynamic diameter (MMAD) with a distribution of 400 μl per minute. This aerosol challenge is necessary to target the Th2-driven allergic inflammation in the lower airways.
The anti-inflammatory dosing paradigm (FIG. 3) was utilized to evaluate the anti-inflammatory effects of experimental compounds. […] On day 32 of the experiment, after measurement of airway hyperreactivity, BALF was collected and all animals were anesthetized, bled and euthanized.
Bronchoalveolar lavage fluid (BALF) was collected by infusing 3.0 ml of saline with 10% fetal calf serum into the lungs via the trachea and then withdrawing the fluid. The total amount of cells/ml of BALF fluid was determined via manual cell count on hemocytometer. The BALF was centrifuged, supernatant removed and analyzed for cytokine concentrations as described below, and cell pellet reconstituted in 500 μL of fluid. Cytospin slides were prepared from the cell pellet using 100 μL of fluid and spinning samples for 5 minutes at 5000 rpms in a cytospin centrifuge. Following Hema3 stain, relative percentages of individual leukocytes were determined on a 200 cell count for each sample. The final concentration of individual leukocyte cell types per ml of BALF was determined by multiplication of the relative percentage of individual leukocytes with the total amount of cells/ml of BALF fluid.
The concentrations of cytokines in the BALF samples were determined using commercially available Bio-plex kits (Bio-Rad) for the detection of mouse IL-5, IL-13, and Eotaxin. The analysis of cytokine levels was measured using the Bio-Plex 200 (Bio-Rad) system according to the manufacturer's instructions.

ROCK2 = target: T4, ROCK2 (Homo sapiens, UniProt O75116); experiment: Rho kinase inhibition assay (IMAP fluorescence polarization), ROCK2; assay type: biochemical;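 note: kinase reaction started with 10 µM ATP and run 60 min at room temperature, then phosphorylated substrate captured on IMAP beads for 30 min and fluorescence polarization read in mP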
T4 construct: purchased Upstate/Chemicon 14-451
Method: as §1

human monocytes = experiment: Human monocyte cytokine secretion assay (LPS-stimulated); assay type: cell-based; conditions: average percent of stimulated IL-1β secretion from human monocytes at 10 μM of test compound
Method: Peripheral blood from healthy human volunteers was collected and the monocytes isolated via Ficoll-paque density centrifugation. […] The cells were allowed to pre-incubate with test compound at the indicated concentration for 30 minutes (37° C., 5% CO2, humidified air); after which the supernatant was removed and media containing compound and 1 ng/mL LPS was added. Cells were allowed to incubate with compounds and LPS for 4 hours at 37° C. after which the supernatant was removed and stored at −80° C. Cytokine concentrations in the supernatant were determined using commercially available Bio-Rad Bio-plex™ kits according the manufacturer's instructions.

human eosinophils = experiment: Human eosinophil chemotaxis induced by eotaxin; assay type: cell-based; conditions: 1 nM eotaxin challenge; FIG. 2
Excerpt: Peripheral blood from healthy human volunteers was collected and the PMNs separated via Ficoll-paque density centrifugation followed by hypotonic lysis of the red blood cells. Subsequently, the human eosinophils were isolated from the cell suspension via StemCell Technologies Human Eosinophil Enrichment kit (Cat. No 19256) according to the manufacturer's recommendations. Briefly, unwanted cells were specifically labeled with dextran-coated magnetic nanoparticles using bispecific Tetrameric Antibody Complexes (TAC) directed against cell surface antigens on human blood cells: […] The unwanted cells are then separated from the unlabelled eosinophils using the EasySep® magnetic isolation procedure.

murine eosinophils = experiment: Murine eosinophil chemotaxis induced by eotaxin; assay type: cell-based, mouse; conditions: 10 nM eotaxin challenge; FIG. 1
Method: Bronchoalveolar lavage was collected from ovalbumin sensitized and challenged mice in a volume of 2.5 mL lavage buffer. The lavage buffer was 0.9% saline with 10% fetal bovine serum. The pooled lavages were maintained on ice until use. The murine eosinophils were isolated using MACS cell separation (Miltenyi Biotech) by depletion of B cells and T cells by positive selection following incubation with antibody conjugated magnetic beads specific for CD45-R (B220) and CD90 (Thy 1.2), which bind B cells and T cells, respectively.
Eosinophil chemotaxis was assessed using a modified Boyden Chamber (Neuroprobe, 96-well) with a 5 μm pore membrane. The ability of the tested compounds to block chemotaxis induced by a 10 nM eotaxin challenge (mouse) or 1 nM eotaxin challenge (human) during one hour incubation at 37° C. with 5% CO2 was assessed. Chemotaxis was quantified via microscopy by counting the number of migrated cells in at least 3 view fields per treatment.

[7] = 30 μM ATP, Ki=IC50/(1+([ATP Challenge]/EC50 ATP)), read-out: p70S6K Ki, Avg
[8] = average Ki, read-out: p70S6K Ki
[9] = 30 μM ATP, Ki=IC50/(1+([ATP Challenge]/EC50 ATP)), read-out: Akt3 Ki, Avg
[10] = Neutrophil, 1 h, 1 μM fMLP challenge, one hour, read-out: Chemotaxis Avg. IC50
[11] = average IC50 for inhibition of fMLP-induced neutrophil chemotaxis, read-out: Chemotaxis IC50
[12] = 10 μM ATP, read-out: ROCK2 Ki, Avg
[13] = male, CD Sprague Dawley, mean n = 3
[14] = male, CD Sprague Dawley, mean n = 3, read-out: Cmax
[15] = male, CD Sprague Dawley, mean n = 3, read-out: Tmax
[16] = 15 μmol/kg, mean compound plasma concentration in mice at 15 minutes post oral administration, read-out: Mouse Oral PK

T4 sequence (O75116 11-552 limits assumed): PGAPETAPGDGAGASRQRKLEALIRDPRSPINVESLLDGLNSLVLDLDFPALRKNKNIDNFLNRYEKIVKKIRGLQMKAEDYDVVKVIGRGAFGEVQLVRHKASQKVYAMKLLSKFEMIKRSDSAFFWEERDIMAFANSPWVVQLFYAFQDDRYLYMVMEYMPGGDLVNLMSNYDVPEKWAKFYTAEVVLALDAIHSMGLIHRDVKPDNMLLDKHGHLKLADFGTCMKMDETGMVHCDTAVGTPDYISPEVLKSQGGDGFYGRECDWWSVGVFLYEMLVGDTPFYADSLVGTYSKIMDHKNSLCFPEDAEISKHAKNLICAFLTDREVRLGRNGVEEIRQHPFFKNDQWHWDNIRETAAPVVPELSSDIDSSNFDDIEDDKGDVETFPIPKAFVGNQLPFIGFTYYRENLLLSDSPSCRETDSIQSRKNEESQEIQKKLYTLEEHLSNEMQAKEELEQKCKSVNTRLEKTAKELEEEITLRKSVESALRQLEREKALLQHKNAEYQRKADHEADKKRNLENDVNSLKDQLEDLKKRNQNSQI
T1 sequence (Q13464 17-535 limits assumed): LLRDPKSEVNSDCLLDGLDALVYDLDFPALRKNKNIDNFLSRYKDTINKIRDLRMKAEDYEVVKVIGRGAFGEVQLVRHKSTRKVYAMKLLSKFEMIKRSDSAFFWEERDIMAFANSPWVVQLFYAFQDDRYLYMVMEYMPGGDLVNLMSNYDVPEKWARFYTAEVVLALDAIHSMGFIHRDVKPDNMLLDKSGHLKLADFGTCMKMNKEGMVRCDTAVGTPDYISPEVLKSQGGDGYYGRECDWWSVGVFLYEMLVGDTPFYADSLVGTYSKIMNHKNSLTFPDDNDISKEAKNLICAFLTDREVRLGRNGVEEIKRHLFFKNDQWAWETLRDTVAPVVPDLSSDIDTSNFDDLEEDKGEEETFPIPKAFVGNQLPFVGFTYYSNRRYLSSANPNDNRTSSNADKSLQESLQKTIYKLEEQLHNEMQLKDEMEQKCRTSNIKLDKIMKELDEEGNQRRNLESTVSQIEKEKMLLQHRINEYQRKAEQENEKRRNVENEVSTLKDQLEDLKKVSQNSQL
T2 sequence (P23443 1-421 T412E limits assumed): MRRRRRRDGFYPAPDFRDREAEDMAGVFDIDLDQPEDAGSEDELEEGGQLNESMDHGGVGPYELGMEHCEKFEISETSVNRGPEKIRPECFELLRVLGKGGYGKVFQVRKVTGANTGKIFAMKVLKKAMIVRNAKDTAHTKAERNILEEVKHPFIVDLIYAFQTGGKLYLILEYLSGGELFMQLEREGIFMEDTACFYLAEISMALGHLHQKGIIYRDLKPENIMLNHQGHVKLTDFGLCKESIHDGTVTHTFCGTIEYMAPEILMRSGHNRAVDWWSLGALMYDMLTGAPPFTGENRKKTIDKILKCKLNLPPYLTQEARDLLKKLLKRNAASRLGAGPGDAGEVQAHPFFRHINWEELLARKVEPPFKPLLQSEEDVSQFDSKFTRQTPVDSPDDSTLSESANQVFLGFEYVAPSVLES
T3 sequence (Q9Y243 whole entry): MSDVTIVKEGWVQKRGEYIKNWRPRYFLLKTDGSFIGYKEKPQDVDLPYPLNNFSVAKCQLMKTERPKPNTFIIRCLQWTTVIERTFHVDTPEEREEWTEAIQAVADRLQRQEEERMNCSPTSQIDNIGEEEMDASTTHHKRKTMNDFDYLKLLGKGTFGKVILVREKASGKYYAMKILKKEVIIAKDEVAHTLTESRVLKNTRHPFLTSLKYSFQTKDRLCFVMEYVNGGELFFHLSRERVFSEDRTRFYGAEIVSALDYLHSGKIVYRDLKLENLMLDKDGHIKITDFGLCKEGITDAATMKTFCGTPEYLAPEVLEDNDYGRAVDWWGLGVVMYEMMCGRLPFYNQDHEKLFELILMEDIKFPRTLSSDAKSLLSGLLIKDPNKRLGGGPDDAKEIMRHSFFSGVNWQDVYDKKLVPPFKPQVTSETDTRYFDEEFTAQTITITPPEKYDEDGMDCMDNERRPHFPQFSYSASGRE

Row | SMILES | Ki (ROCK1; Avg, 10 μM ATP) [nM] | Ki (ROCK1; average Ki) [nM] | Ki (p70S6K human enzyme; [7]) [nM] | Ki (p70S6K human enzyme; [8]) [nM] | Ki (Akt3 human enzyme; [9]) [nM] | Ki (Akt3 human enzyme; average Ki, read-out: Akt3 Ki) [nM] | Vz_F ([2]; mean n = 3) | IC50 (human neutrophils; [10]) [nM] | IC50 (human neutrophils; [11]) [nM] | Percent of PDGF Induced Proliferation at 1 μM Avg [4] [%] | Percent of PDGF Induced Proliferation at 10 μM Avg [4] [%] | Ki (ROCK2; [12]) [nM] | AUC(0-t) [2, 13] [µM·h] | Cmax [2, 14] [nM] | Tmax [2, 15] [min] | half-life ([2]; male, CD Sprague Dawley) [min] | concentration at 3 h ([3]; PO 15 μmol/kg) [nM] | log10AUC (Penh) [1] | airway hyperreactivity to methacholine dosed on Day 32 [1] | concentration at 24 h ([3]; PO 15 μmol/kg) [nM] | further results
1 | CS(=O)(=O)Nc1cccc(CN2CCCC(Nc3ccc4[nH]ncc4c3)C2)c1 (stereo in doubt) [Compound 1.091, (S)-N-(3-((3-(1H-indazol-5-ylamino)piperidin-1-yl)methyl)phenyl)methanesulfonamide] | 71.4 | 71.4 | 1420 | 1420 | 5390 | 5390 | BLQ | 2330 | 2300 | 85.7 | 69.3 | 3.3 | – | – | – | – | – | – | – | – | airway hyperreactivity ([1]; intratracheal once a day during days 27 to 30, FIG. 9): prevention of airway hyperreactivity; AUC (0-last) ([2]; mean n = 3): BLQ; Cmax ([2]; mean n = 3): BLQ; Tmax ([2]; mean n = 3): BLQ; t½ ([2]; mean n = 3): BLQ; concentration at 3 h ([3]; intraperitoneal, IP 15 μmol/kg): 117 nM; Proliferation at 1 μM, % ([4]; average percent of PDGF stimulated proliferation at 1 μM of test compound): 85.7%; IL-1β levels in BALF from LPS-challenged mice (LPS-challenged mice): reduction; concentration at 15 min ([5]; plasma, unsensitized mice, 15 min post administration, mean n = 3, read-out: Plasma Mean Concentration): 334 nM; eosinophils (eosinophil influx, BALF) ([6]; dosed i.t. to day 30, anti-inflammatory dosing paradigm, FIG. 5): reduction of eosinophils; IL-1β % (human monocytes): 165.5%
2 | OCCOc1cccc(CN2CCC[C@@H](Nc3ccc4[nH]ncc4c3)C2)c1 [Compound 1.092, (R)-2-(3-((3-(1H-indazol-5-ylamino)piperidin-1-yl)methyl)phenoxy)ethanol] | 191 | – | – | – | – | – | 19.0 L/kg | 2750 | – | – | – | 28.4 | 1.85 | 2100 | 15 | 104 | 152 | – | – | – | –
3 | c1cc2cc(CN3CCC[C@@H](Nc4ccc5[nH]ncc5c4)C3)ccc2o1 [Compound 1.131, (R)-N-(1-(benzofuran-5-ylmethyl)piperidin-3-yl)-1H-indazol-5-amine] | 19.7 | 19.7 | 503 | 503 | 283 | 283 | 6.8 L/kg | 1590 | 1600 | 61.7 | 36.6 | 3.8 | 10.8 | 5610 | 49.8 | 93 | 7350 | 2.0674 | prevention of airway hyperreactivity | 33 | concentration at 15 min [5, 16]: 445 nM; Airway eosinophil infiltration (eosinophils per ml of BALF) [6]: reduced; Ki (ROCK2; average Ki, read-out: ROCK2 Ki): 3.8 nM
4 | CS(=O)(=O)Nc1cccc(CN2CC[C@@H](Nc3cccc4cnccc34)C2)c1 [Compound 2.038, (R)-N-(3-((3-(isoquinolin-5-ylamino)pyrrolidin-1-yl)methyl)phenyl)methanesulfonamide] | 28.9 | 28.9 | 1400 | 1400 | 2550 | 2550 | 22.5 L/kg | 734 | 700 | 58.6 | 62.7 | 6.3 | 1.28 | 1040 | 30 | 42.6 | 440 | 1.8981 | prevention of airway hyperreactivity | 11 | eotaxin-induced chemotactic response of human eosinophils (human eosinophils): inhibited; eotaxin-induced chemotactic response of murine eosinophils (murine eosinophils): inhibited; concentration at 15 min [5, 16]: 729 nM; concentration of IL-5 in BALF ([6]; 15 μmol/kg/oral on days 27 to 31, FIG. 6): reduced levels; concentration of Eotaxin in BALF ([6]; 15 μmol/kg/oral on days 27 to 31, FIG. 7): reduced levels; concentration of IL-13 in BALF ([6]; 15 μmol/kg/oral on days 27 to 31, FIG. 8): reduced levels; Airway eosinophil infiltration (eosinophils per ml of BALF) [6]: reduced; Ki (ROCK2; average Ki, read-out: ROCK2 Ki): 6.3 nM
